What was measured:
[1] = target: T1, Carboxylic ester hydrolase (Sus scrofa) (UniProt A0A286ZKB1); test: Inhibition of porcine cholesterol esterase at 50 nM using para-nitrophenyl butyrate as substrate after 5 mins in presence of sodium taurocholate by spectrophotometric method relative to control
T1 sequence (whole entry): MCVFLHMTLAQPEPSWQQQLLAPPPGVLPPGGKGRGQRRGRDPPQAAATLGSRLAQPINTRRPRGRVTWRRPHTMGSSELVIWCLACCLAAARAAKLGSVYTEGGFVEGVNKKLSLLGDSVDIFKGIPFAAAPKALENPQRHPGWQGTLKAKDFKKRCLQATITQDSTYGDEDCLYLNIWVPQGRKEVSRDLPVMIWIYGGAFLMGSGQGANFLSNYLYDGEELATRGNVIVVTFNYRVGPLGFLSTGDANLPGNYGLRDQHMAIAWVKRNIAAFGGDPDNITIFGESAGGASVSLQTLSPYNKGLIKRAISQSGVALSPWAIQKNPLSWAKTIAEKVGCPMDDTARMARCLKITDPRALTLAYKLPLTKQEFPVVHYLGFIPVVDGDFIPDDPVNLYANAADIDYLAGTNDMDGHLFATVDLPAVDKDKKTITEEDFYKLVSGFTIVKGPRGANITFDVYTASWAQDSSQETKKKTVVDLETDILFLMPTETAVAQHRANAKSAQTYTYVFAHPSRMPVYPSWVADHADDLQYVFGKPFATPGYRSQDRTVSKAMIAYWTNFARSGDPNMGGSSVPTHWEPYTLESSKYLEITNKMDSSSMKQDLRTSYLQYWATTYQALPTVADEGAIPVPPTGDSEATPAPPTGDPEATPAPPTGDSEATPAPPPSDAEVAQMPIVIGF

[2] = target: T1, Carboxylic ester hydrolase (Sus scrofa); test: Inhibition of porcine cholesterol esterase at 5 nM using para-nitrophenyl butyrate as substrate after 5 mins in presence of sodium taurocholate by spectrophotometric method relative to control
[3] = target: T1, Carboxylic ester hydrolase (Sus scrofa); test: Inhibition of porcine cholesterol esterase at 25 nM using para-nitrophenyl butyrate as substrate after 5 mins in presence of sodium taurocholate by spectrophotometric method relative to control
[4] = target: T2, Carboxylic ester hydrolase (Sus scrofa, UniProt A0A286ZKB1); test: Inhibition of porcine cholesterol esterase using para-nitrophenyl butyrate as substrate after 5 mins in presence of sodium taurocholate by spectrophotometric method
T2 sequence (A0A286ZKB1 whole entry): T1 sequence (whole entry)

[5] = target: T1, Carboxylic ester hydrolase (Sus scrofa); test: Inhibition of porcine cholesterol esterase at 1 nM using para-nitrophenyl butyrate as substrate after 5 mins in presence of sodium taurocholate by spectrophotometric method relative to control
[6] = target: T1, Carboxylic ester hydrolase (Sus scrofa); test: Inhibition of porcine cholesterol esterase at 10 nM using para-nitrophenyl butyrate as substrate after 5 mins in presence of sodium taurocholate by spectrophotometric method relative to control

Structure (SMILES): O=c1cc(-c2ccc(F)cc2)oc2c1ccc1ccccc12
- inhibition [1]: 79%
- inhibition [2]: 62%
- inhibition [3]: 75%
- IC50 ([4]; read-out: IC50): 20.1 nM
- inhibition [5]: 46%
- inhibition [6]: 73%

Structure (SMILES): O=c1cc(-c2ccccc2)oc2c1ccc1ccccc12 [ALPHA-NAPHTHOFLAVONE]
- inhibition [1]: 51%
- inhibition [2]: 33%
- inhibition [3]: 48%
- IC50 ([4]; read-out: IC50): 47.8 nM
- inhibition [5]: 28%
- inhibition [6]: 40%

Structure (SMILES): O=c1cc(-c2ccc(F)c(F)c2)oc2c1ccc1ccccc12
- inhibition [1]: 81%
- inhibition [2]: 68%
- inhibition [3]: 79%
- IC50 ([4]; read-out: IC50): 14.1 nM
- inhibition [5]: 48%
- inhibition [6]: 76%

Structure (SMILES): O=c1cc(-c2c(F)cccc2F)oc2c1ccc1ccccc12
- inhibition [1]: 92%
- inhibition [2]: 71%
- inhibition [3]: 88%
- IC50 ([4]; read-out: IC50): 1.99 nM
- inhibition [5]: 54%
- inhibition [6]: 83%

Structure (SMILES): O=c1cc(-c2cc(C(F)(F)F)cc(C(F)(F)F)c2)oc2c1ccc1ccccc12
- inhibition [1]: 54%
- inhibition [2]: 28%
- inhibition [3]: 42%
- IC50 [4]: Not Active
- inhibition [5]: 21%
- inhibition [6]: 34%

Structure (SMILES): Cc1ccc(-c2cc(=O)c3ccc4ccccc4c3o2)cc1
- inhibition [1]: 34%
- inhibition [2]: 18%
- inhibition [3]: 31%
- IC50 [4]: Not Active
- inhibition [5]: 14%
- inhibition [6]: 24%

Structure (SMILES): O=c1cc(-c2cccc(C(F)(F)F)c2)oc2c1ccc1ccccc12
- inhibition [1]: 57%
- inhibition [2]: 30%
- inhibition [3]: 47%
- IC50 [4]: Not Active
- inhibition [5]: 26%
- inhibition [6]: 34%

Structure (SMILES): O=c1cc(-c2ccc(I)cc2)oc2c1ccc1ccccc12
- inhibition [1]: 75%
- inhibition [2]: 53%
- inhibition [3]: 73%
- IC50 ([4]; read-out: IC50): 34.1 nM
- inhibition [5]: 38%
- inhibition [6]: 71%

Structure (SMILES): O=c1cc(-c2ccc(C(F)(F)F)cc2F)oc2c1ccc1ccccc12
- inhibition [1]: 67%
- inhibition [2]: 43%
- inhibition [3]: 62%
- IC50 ([4]; read-out: IC50): 39 nM
- inhibition [5]: 33%
- inhibition [6]: 51%

Structure (SMILES): O=c1cc(-c2cccc(Cl)c2)oc2c1ccc1ccccc12
- inhibition [1]: 85%
- inhibition [2]: 68%
- inhibition [3]: 83%
- IC50 ([4]; read-out: IC50): 6.99 nM
- inhibition [5]: 51%
- inhibition [6]: 80%

Structure (SMILES): O=c1cc(-c2cccc([N+](=O)[O-])c2)oc2c1ccc1ccccc12
- inhibition [1]: 78%
- inhibition [2]: 51%
- inhibition [3]: 75%
- IC50 ([4]; read-out: IC50): 25.1 nM
- inhibition [5]: 36%
- inhibition [6]: 71%

Structure (SMILES): CN(C)c1ccc(-c2cc(=O)c3ccc4ccccc4c3o2)cc1
- inhibition [1]: 23%
- inhibition [2]: 12%
- inhibition [3]: 21%
- IC50 [4]: Not Active
- inhibition [5]: 9%
- inhibition [6]: 18%

Structure (SMILES): O=c1cc(-c2cccc(Cl)c2Cl)oc2c1ccc1ccccc12
- inhibition [1]: 84%
- inhibition [2]: 64%
- inhibition [3]: 82%
- IC50 ([4]; read-out: IC50): 10.8 nM
- inhibition [5]: 50%
- inhibition [6]: 78%

Structure (SMILES): COc1ccc(-c2cc(=O)c3ccc4ccccc4c3o2)cc1
- inhibition [1]: 31%
- inhibition [2]: 18%
- inhibition [3]: 28%
- IC50 [4]: Not Active
- inhibition [5]: 11%
- inhibition [6]: 22%

Structure (SMILES): O=c1cc(-c2ccc(Br)cc2)oc2c1ccc1ccccc12
- inhibition [1]: 77%
- inhibition [2]: 59%
- inhibition [3]: 76%
- IC50 ([4]; read-out: IC50): 28.5 nM
- inhibition [5]: 40%
- inhibition [6]: 74%

Structure (SMILES): O=c1cc(-c2cccc(CCl)c2)oc2c1ccc1ccccc12
- inhibition [1]: 68%
- inhibition [2]: 45%
- inhibition [3]: 62%
- IC50 ([4]; read-out: IC50): 40 nM
- inhibition [5]: 35%
- inhibition [6]: 52%

Structure (SMILES): O=c1cc(-c2c(F)cccc2C(F)(F)F)oc2c1ccc1ccccc12
- inhibition [1]: 64%
- inhibition [2]: 48%
- inhibition [3]: 59%
- IC50 ([4]; read-out: IC50): 38.9 nM
- inhibition [5]: 31%
- inhibition [6]: 52%

Structure (SMILES): O=c1cc(-c2ccccc2I)oc2c1ccc1ccccc12
- inhibition [1]: 80%
- inhibition [2]: 64%
- inhibition [3]: 79%
- IC50 ([4]; read-out: IC50): 16.1 nM
- inhibition [5]: 46%
- inhibition [6]: 78%

Structure (SMILES): O=c1cc(-c2ccc(F)cc2F)oc2c1ccc1ccccc12
- inhibition [1]: 97%
- inhibition [2]: 66%
- inhibition [3]: 91%
- IC50 ([4]; read-out: IC50): 1.43 nM
- inhibition [5]: 51%
- inhibition [6]: 80%

Structure (SMILES): O=c1cc(-c2cccc(Br)c2)oc2c1ccc1ccccc12
- inhibition [1]: 78%
- inhibition [2]: 57%
- inhibition [3]: 76%
- IC50 ([4]; read-out: IC50): 26.1 nM
- inhibition [5]: 43%
- inhibition [6]: 73%

Structure (SMILES): COc1ccc(-c2cc(=O)c3ccc4ccccc4c3o2)c(OC)c1
- inhibition [1]: 28%
- inhibition [2]: 12%
- inhibition [3]: 25%
- IC50 [4]: Not Active
- inhibition [5]: 6%
- inhibition [6]: 21%

Structure (SMILES): O=c1cc(-c2ccc(F)cc2C(F)(F)F)oc2c1ccc1ccccc12
- inhibition [1]: 63%
- inhibition [2]: 38%
- inhibition [3]: 55%
- IC50 ([4]; read-out: IC50): 39.1 nM
- inhibition [5]: 28%
- inhibition [6]: 44%

Structure (SMILES): O=c1cc(-c2ccccc2Br)oc2c1ccc1ccccc12
- inhibition [1]: 83%
- inhibition [2]: 66%
- inhibition [3]: 81%
- IC50 ([4]; read-out: IC50): 11 nM
- inhibition [5]: 51%
- inhibition [6]: 79%

Structure (SMILES): O=c1cc(-c2ccc([N+](=O)[O-])cc2)oc2c1ccc1ccccc12
- inhibition [1]: 70%
- inhibition [2]: 47%
- inhibition [3]: 69%
- IC50 ([4]; read-out: IC50): 37.3 nM
- inhibition [5]: 35%
- inhibition [6]: 68%

Structure (SMILES): CC(=O)Oc1cccc(-c2cc(=O)c3ccc4ccccc4c3o2)c1
- inhibition [1]: 55%
- inhibition [2]: 27%
- inhibition [3]: 47%
- IC50 [4]: Not Active
- inhibition [5]: 23%
- inhibition [6]: 36%

Structure (SMILES): O=c1cc(-c2cc(F)ccc2C(F)(F)F)oc2c1ccc1ccccc12
- inhibition [1]: 63%
- inhibition [2]: 34%
- inhibition [3]: 54%
- IC50 ([4]; read-out: IC50): 41.3 nM
- inhibition [5]: 26%
- inhibition [6]: 41%

Structure (SMILES): O=c1cc(-c2cc(F)cc(C(F)(F)F)c2)oc2c1ccc1ccccc12
- inhibition [1]: 62%
- inhibition [2]: 38%
- inhibition [3]: 54%
- IC50 ([4]; read-out: IC50): 43 nM
- inhibition [5]: 27%
- inhibition [6]: 41%

Structure (SMILES): COc1ccc(-c2cc(=O)c3ccc4ccccc4c3o2)cc1OC
- inhibition [1]: 25%
- inhibition [2]: 14%
- inhibition [3]: 23%
- IC50 [4]: Not Active
- inhibition [5]: 5%
- inhibition [6]: 20%

Structure (SMILES): O=c1cc(-c2cc([N+](=O)[O-])cc([N+](=O)[O-])c2)oc2c1ccc1ccccc12
- inhibition [1]: 76%
- inhibition [2]: 54%
- inhibition [3]: 75%
- IC50 ([4]; read-out: IC50): 30 nM
- inhibition [5]: 41%
- inhibition [6]: 72%

Structure (SMILES): CC(=O)Oc1ccc(-c2cc(=O)c3ccc4ccccc4c3o2)cc1
- inhibition [1]: 56%
- inhibition [2]: 28%
- inhibition [3]: 46%
- IC50 [4]: Not Active
- inhibition [5]: 21%
- inhibition [6]: 34%

Structure (SMILES): O=c1cc(-c2cc(F)ccc2F)oc2c1ccc1ccccc12
- inhibition [1]: 86%
- inhibition [2]: 65%
- inhibition [3]: 84%
- IC50 ([4]; read-out: IC50): 6.81 nM
- inhibition [5]: 49%
- inhibition [6]: 79%

Structure (SMILES): O=c1cc(-c2cccc(F)c2)oc2c1ccc1ccccc12
- inhibition [1]: 87%
- inhibition [2]: 64%
- inhibition [3]: 83%
- IC50 ([4]; read-out: IC50): 5.24 nM
- inhibition [5]: 50%
- inhibition [6]: 79%

Structure (SMILES): O=c1cc(-c2ccc(CCl)cc2)oc2c1ccc1ccccc12
- inhibition [1]: 66%
- inhibition [2]: 43%
- inhibition [3]: 60%
- IC50 ([4]; read-out: IC50): 39.2 nM
- inhibition [5]: 32%
- inhibition [6]: 48%

Structure (SMILES): O=c1cc(-c2ccccc2C(F)(F)F)oc2c1ccc1ccccc12
- inhibition [1]: 58%
- inhibition [2]: 32%
- inhibition [3]: 48%
- IC50 [4]: Not Active
- inhibition [5]: 29%
- inhibition [6]: 36%

Structure (SMILES): O=c1cc(-c2cccc(OC(F)(F)F)c2)oc2c1ccc1ccccc12
- inhibition [1]: 44%
- inhibition [2]: 24%
- inhibition [3]: 39%
- IC50 [4]: Not Active
- inhibition [5]: 17%
- inhibition [6]: 32%

Structure (SMILES): O=c1cc(-c2ccccc2F)oc2c1ccc1ccccc12
- inhibition [1]: 89%
- inhibition [2]: 65%
- inhibition [3]: 84%
- IC50 ([4]; read-out: IC50): 3.22 nM
- inhibition [5]: 50%
- inhibition [6]: 81%

Structure (SMILES): O=c1cc(-c2ccc(F)c(C(F)(F)F)c2)oc2c1ccc1ccccc12
- inhibition [1]: 63%
- inhibition [2]: 34%
- inhibition [3]: 55%
- IC50 ([4]; read-out: IC50): 43 nM
- inhibition [5]: 21%
- inhibition [6]: 43%

Structure (SMILES): O=c1cc(-c2ccc(C(F)(F)F)cc2)oc2c1ccc1ccccc12
- inhibition [1]: 56%
- inhibition [2]: 29%
- inhibition [3]: 46%
- IC50 [4]: Not Active
- inhibition [5]: 25%
- inhibition [6]: 35%

Source: ChEMBL document CHEMBL4002634, “Benzoflavones as cholesterol esterase inhibitors: Synthesis, biological evaluation and docking studies” (Bioorg Med Chem Lett, 2017)
